Experiments:
Test in all cases: Test D controlled growth environment herbicide test, pre- and postemergence
Format in all cases: in vivo
[1] = tested on: barley, spring (spring barley, Hordeum vulgare)
Outline: (§1)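 Rating is visual, 0–100 scale (100 = complete control), made against untreated plants 14–21 d after treatment in controlled growth conditions. Postemergence sprays went onto 1- to 4-leaf plants in peat medium; preemergence sprays onto silt loam after sowing; formulation included a surfactant.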

[2] = tested on: bluegrass (annual bluegrass, Poa annua)
Outline: as §1

[3] = tested on: buckwheat, wild (wild buckwheat, Polygonum convolvulus); conditions: for Buckwheat, Wild plant response rating / Plant response rating (scale of 0 to 100), Buckwheat, Wild: 31 g ai/ha
Outline: as §1

[4] = tested on: canarygrass (Phalaris minor); conditions: for Canarygrass plant response rating / Plant response rating (scale of 0 to 100), Canarygrass: 31 g ai/ha
Outline: as §1

[5] = tested on: deadnettle (henbit deadnettle, Lamium amplexicaule); conditions: for Deadnettle plant response rating / Plant response rating (scale of 0 to 100), Deadnettle: 31 g ai/ha
Outline: as §1

[6] = tested on: field violet (Viola arvensis)
Outline: as §1

[7] = tested on: galium (catchweed bedstraw, Galium aparine); conditions: for Galium plant response rating / Plant response rating (scale of 0 to 100), Galium: 31 g ai/ha
Outline: as §1

kochia (Kochia scoparia) = conditions: for Kochia plant response rating / Plant response rating (scale of 0 to 100), Kochia: 31 g ai/ha
Outline: as §1

[8] = tested on: oilseed rape (Brassica napus); conditions: for Oilseed Rape plant response rating / Plant response rating (scale of 0 to 100), Oilseed Rape: 31 g ai/ha
Outline: as §1

[9] = tested on: radish, wild (wild radish, Raphanus raphanistrum); conditions: for Radish, Wild plant response rating / Plant response rating (scale of 0 to 100), Radish, Wild: 31 g ai/ha
Outline: as §1

[10] = tested on: ryegrass, Italian (Italian ryegrass, Lolium multiflorum); conditions: for Ryegrass, Italian plant response rating / Plant response rating (scale of 0 to 100), Ryegrass, Italian: 31 g ai/ha
Outline: as §1

[11] = tested on: speedwell (bird's-eye speedwell, Veronica persica); conditions: for Speedwell plant response rating / Plant response rating (scale of 0 to 100), Speedwell: 31 g ai/ha
Outline: as §1

[12] = Postemergence, 31 g ai/ha, scale 0 to 100 (0 no effect, 100 complete control)
[13] = Postemergence, 125 g ai/ha, visual rating on scale 0 (no effect) to 100 (complete control), 14 to 21 d
[14] = Postemergence, 250 g ai/ha, scale 0 to 100 (0 no effect, 100 complete control)
[15] = Preemergence, 62 g ai/ha, scale 0 to 100 (0 no effect, 100 complete control)
[16] = Preemergence, 125 g ai/ha, scale 0 to 100 (0 no effect, 100 complete control)
[17] = Preemergence, 250 g ai/ha, scale 0 to 100, 0 no effect, 100 complete control
[18] = postemergence, 62 g ai/ha, scale 0 to 100, 0 no effect, 100 complete control
[19] = Postemergence, scale 0 to 100 (0 no effect, 100 complete control)

CCc1sc2ccc(C)cc2c1-c1c(O)c(C)nn(C)c1=O [Compound 47]
95: Plant response rating (scale of 0 to 100), Field Violet ([6]; Preemergence, 31 g ai/ha) | Plant response rating, Galium [7, 15] | Plant response rating, Kochia (kochia (Kochia scoparia); [13])
15: Plant response rating, Barley, Spring [1, 16] | Barley, Spring plant response rating [1, 17] | Plant response rating, Bluegrass [2, 14] | Plant response rating, Oilseed Rape [8, 17]
50: Plant response rating, Speedwell [11, 14]
100: Plant response rating, Buckwheat, Wild [3, 14] | Plant response rating, Field Violet [6, 15] | Plant response rating, Field Violet [6, 16] | Plant response rating, Field Violet [6, 17] | Plant response rating, Galium [7, 16] | Plant response rating, Galium [7, 17] | Plant response rating, Kochia (kochia (Kochia scoparia); [14]) | Plant response rating, Radish, Wild [9, 16] | Plant response rating, Speedwell [11, 17]
25: Plant response rating, Radish, Wild [9, 15] | Plant response rating (scale of 0 to 100), Speedwell ([11]; Preemergence) | Plant response rating, Speedwell [11, 15]
20: Plant response rating, Bluegrass [2, 15] | Plant response rating, Bluegrass [2, 16] | Bluegrass plant response rating [2, 17] | Deadnettle plant response rating [5, 19] | Plant response rating, Deadnettle [5, 18] | Oilseed Rape plant response rating [8, 19] | Plant response rating, Oilseed Rape [8, 18] | Plant response rating, Radish, Wild [9, 14] | Plant response rating (scale of 0 to 100), Radish, Wild ([9]; Preemergence) | Plant response rating (scale of 0 to 100), Ryegrass, Italian ([10]; Preemergence)
70: Plant response rating (scale of 0 to 100), Buckwheat, Wild ([3]; Preemergence) | Plant response rating, Buckwheat, Wild [3, 16] | Plant response rating, Kochia (kochia (Kochia scoparia); [18]) | Plant response rating, Oilseed Rape [8, 14] | Plant response rating, Ryegrass, Italian [10, 17]
0: Barley, Spring plant response rating [1, 12] | Plant response rating, Barley, Spring [1, 13] | Plant response rating, Barley, Spring [1, 14] | Plant response rating (scale of 0 to 100), Barley, Spring ([1]; Preemergence, 31 g ai/ha) | Plant response rating, Barley, Spring [1, 18] | Plant response rating (scale of 0 to 100), Bluegrass ([2]; Preemergence, 31 g ai/ha) | Canarygrass plant response rating [4, 19] | Plant response rating, Canarygrass [4, 13] | Plant response rating, Canarygrass [4, 14] | Plant response rating (scale of 0 to 100), Canarygrass ([4]; Preemergence) | Plant response rating, Canarygrass [4, 15] | Plant response rating, Canarygrass [4, 16] | Plant response rating, Canarygrass [4, 18] | Plant response rating (scale of 0 to 100), Deadnettle ([5]; Preemergence) | Plant response rating (scale of 0 to 100), Oilseed Rape ([8]; Preemergence) | Plant response rating, Oilseed Rape [8, 15]
40: Plant response rating, Kochia (kochia (Kochia scoparia); [17]) | Plant response rating, Speedwell [11, 13]
60: Buckwheat, Wild plant response rating [3, 19] | Plant response rating, Buckwheat, Wild [3, 15] | Plant response rating, Ryegrass, Italian [10, 16]
85: Plant response rating, Buckwheat, Wild [3, 17] | Plant response rating (scale of 0 to 100), Galium ([7]; Preemergence) | Plant response rating, Radish, Wild [9, 17]
55: Plant response rating, Oilseed Rape [8, 13]
5: Plant response rating, Barley, Spring [1, 15] | Bluegrass plant response rating [2, 12] | Plant response rating, Canarygrass [4, 17] | Radish, Wild plant response rating [9, 19] | Plant response rating, Radish, Wild [9, 13]
10: Plant response rating, Bluegrass [2, 13] | Plant response rating, Bluegrass [2, 18] | Plant response rating, Deadnettle [5, 15] | Plant response rating, Deadnettle [5, 16] | Plant response rating (scale of 0 to 100), Kochia (kochia (Kochia scoparia); Preemergence) | Plant response rating, Kochia (kochia (Kochia scoparia); [15]) | Plant response rating, Oilseed Rape [8, 16] | Plant response rating, Radish, Wild [9, 18] | Ryegrass, Italian plant response rating [10, 19] | Plant response rating, Ryegrass, Italian [10, 18] | Speedwell plant response rating [11, 19] | Plant response rating, Speedwell [11, 18]
80: Plant response rating, Galium [7, 14] | Plant response rating, Speedwell [11, 16]
65: Plant response rating, Deadnettle [5, 17] | Galium plant response rating [7, 19]
30: Plant response rating, Deadnettle [5, 13] | Plant response rating, Deadnettle [5, 14] | Plant response rating, Ryegrass, Italian [10, 13] | Plant response rating, Ryegrass, Italian [10, 15]
35: Plant response rating, Kochia (kochia (Kochia scoparia); [16])
75: Plant response rating, Buckwheat, Wild [3, 18] | Plant response rating, Galium [7, 13] | Plant response rating, Galium [7, 18]
45: Kochia plant response rating (kochia (Kochia scoparia); [19]) | Plant response rating, Ryegrass, Italian [10, 14]
90: Plant response rating, Buckwheat, Wild [3, 13]

CCc1sc2c(C)cc(C)cc2c1-c1c(O)c(C)nn(C)c1=O [Compound 57]
45: Plant response rating, Deadnettle [5, 17]
100: Plant response rating, Buckwheat, Wild [3, 14] | Plant response rating, Buckwheat, Wild [3, 17] | Plant response rating, Deadnettle [5, 14] | Plant response rating, Field Violet [6, 15] | Plant response rating, Field Violet [6, 16] | Plant response rating, Field Violet [6, 17] | Plant response rating, Galium [7, 15] | Plant response rating, Galium [7, 16] | Plant response rating, Galium [7, 17] | Plant response rating, Kochia (kochia (Kochia scoparia); [17]) | Plant response rating, Radish, Wild [9, 13] | Plant response rating, Radish, Wild [9, 17] | Plant response rating, Radish, Wild [9, 18] | Speedwell plant response rating [11, 19] | Plant response rating, Speedwell [11, 14] | Plant response rating, Speedwell [11, 16] | Plant response rating, Speedwell [11, 17]
65: Plant response rating, Bluegrass [2, 17] | Plant response rating, Canarygrass [4, 17] | Plant response rating, Kochia (kochia (Kochia scoparia); [13]) | Plant response rating, Oilseed Rape [8, 13] | Plant response rating, Oilseed Rape [8, 14]
55: Plant response rating, Canarygrass [4, 16] | Plant response rating, Kochia (kochia (Kochia scoparia); [18]) | Plant response rating (scale of 0 to 100), Ryegrass, Italian ([10]; Preemergence)
80: Buckwheat, Wild plant response rating [3, 19] | Field Violet plant response rating [6, 12] | Plant response rating, Ryegrass, Italian [10, 16]
0: Plant response rating (scale of 0 to 100), Bluegrass ([2]; Preemergence, 31 g ai/ha) | Plant response rating (scale of 0 to 100), Buckwheat, Wild ([3]; Preemergence) | Plant response rating (scale of 0 to 100), Canarygrass ([4]; Preemergence) | Plant response rating (scale of 0 to 100), Deadnettle ([5]; Preemergence) | Plant response rating (scale of 0 to 100), Oilseed Rape ([8]; Preemergence) | Plant response rating, Oilseed Rape [8, 15] | Plant response rating, Oilseed Rape [8, 16] | Plant response rating (scale of 0 to 100), Radish, Wild ([9]; Preemergence)
5: Plant response rating (scale of 0 to 100), Barley, Spring ([1]; Preemergence, 31 g ai/ha) | Bluegrass plant response rating [2, 12] | Canarygrass plant response rating [4, 19] | Plant response rating, Canarygrass [4, 18]
50: Plant response rating, Ryegrass, Italian [10, 18]
20: Plant response rating, Bluegrass [2, 15] | Plant response rating, Deadnettle [5, 15] | Oilseed Rape plant response rating [8, 19]
90: Plant response rating, Deadnettle [5, 18] | Galium plant response rating [7, 19] | Plant response rating, Galium [7, 13] | Plant response rating, Galium [7, 18] | Plant response rating, Radish, Wild [9, 14] | Plant response rating, Speedwell [11, 15]
95: Plant response rating (scale of 0 to 100), Field Violet ([6]; Preemergence, 31 g ai/ha) | Plant response rating, Ryegrass, Italian [10, 17]
85: Plant response rating, Buckwheat, Wild [3, 13] | Plant response rating, Buckwheat, Wild [3, 18] | Plant response rating, Deadnettle [5, 13] | Plant response rating, Field Violet [6, 14] | Plant response rating (scale of 0 to 100), Galium ([7]; Preemergence) | Plant response rating, Ryegrass, Italian [10, 14]
10: Barley, Spring plant response rating [1, 12] | Plant response rating, Barley, Spring [1, 13] | Plant response rating, Barley, Spring [1, 14] | Plant response rating, Barley, Spring [1, 15] | Plant response rating, Barley, Spring [1, 16] | Plant response rating, Barley, Spring [1, 17] | Plant response rating, Barley, Spring [1, 18] | Plant response rating, Buckwheat, Wild [3, 15] | Plant response rating, Buckwheat, Wild [3, 16] | Plant response rating, Canarygrass [4, 15] | Plant response rating (scale of 0 to 100), Kochia (kochia (Kochia scoparia); Preemergence) | Plant response rating, Kochia (kochia (Kochia scoparia); [15]) | Plant response rating, Radish, Wild [9, 15]
25: Plant response rating, Bluegrass [2, 16] | Plant response rating, Canarygrass [4, 14] | Plant response rating, Deadnettle [5, 16] | Plant response rating, Oilseed Rape [8, 17] | Plant response rating, Oilseed Rape [8, 18] | Plant response rating, Radish, Wild [9, 16] | Ryegrass, Italian plant response rating [10, 19] | Plant response rating, Speedwell [11, 13] | Plant response rating (scale of 0 to 100), Speedwell ([11]; Preemergence)
98: Plant response rating, Galium [7, 14]
40: Kochia plant response rating (kochia (Kochia scoparia); [19]) | Radish, Wild plant response rating [9, 19]
75: Plant response rating, Field Violet [6, 13] | Plant response rating, Kochia (kochia (Kochia scoparia); [14]) | Plant response rating, Ryegrass, Italian [10, 13] | Plant response rating, Ryegrass, Italian [10, 15]
15: Plant response rating, Bluegrass [2, 13] | Plant response rating, Bluegrass [2, 14] | Plant response rating, Bluegrass [2, 18] | Plant response rating, Canarygrass [4, 13] | Plant response rating, Speedwell [11, 18]
35: Plant response rating, Kochia (kochia (Kochia scoparia); [16])
70: Deadnettle plant response rating [5, 19] | Plant response rating, Field Violet [6, 18]
